# Measurements from the supplement of paper PMC10307832.
# Key:
# Experiment in all cases: relative viability (nuclei count vs DMSO), 5 days (fraction); higher = more cells survive
# RO-3306 + Pemetrexed = compound: C1=CC2=C(C=CC(=C2)C=C3C(=O)NC(=NCC4=CC=CS4)S3)N=C1 [RO-3306] + Nc1nc2[nH]cc(CCc3ccc(C(=O)N[C@@H](CCC(=O)O)C(=O)O)cc3)c2c(=O)[nH]1 [Pemetrexed] (partner 0.2 µM)
# Outline: (§1)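 Relative viability is defined as nuclei in treated wells over nuclei in vehicle wells. Duplicate plates were run and medians reported. Lung cancer cell lines in 1536-well plates were dosed by pin tool one day after seeding, with one drug or with a fixed anchor-drug dose plus five library-drug doses (not always all listed) in √10 steps, and nuclei were counted after 5 days.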
# [1] = compound: O=S(=O)(c1ccccc1)N(CC(F)(F)F)c1ccc(C(O)(C(F)(F)F)C(F)(F)F)cc1 + COc1cc2c(Oc3ccc(NC(=O)C4(C(=O)Nc5ccc(F)cc5)CC4)cc3F)ccnc2cc1OCCCN1CCOCC1 [Foretinib] (partner 0.25 µM)
# Outline: as §1
# [2] = compound: O=S(=O)(c1ccccc1)N(CC(F)(F)F)c1ccc(C(O)(C(F)(F)F)C(F)(F)F)cc1 + C[C@]1(O)C[C@@H](c2nc(-c3ccc4ccc(-c5ccccc5)nc4c3)c3c(N)nccn32)C1 [Linsitinib] (partner 1 µM)
# Outline: as §1
# RO-3306 + AZD7762 = compound: C1=CC2=C(C=CC(=C2)C=C3C(=O)NC(=NCC4=CC=CS4)S3)N=C1 [RO-3306] + NC(=O)Nc1cc(-c2cccc(F)c2)sc1C(=O)N[C@H]1CCCNC1 [AZD7762] (partner 0.2 µM)
# Outline: as §1
Cell Line,relative viability (RO-3306 + Pemetrexed; first compound 0.01 µM),relative viability (RO-3306 + Pemetrexed; first compound 0.03162 µM),relative viability (RO-3306 + Pemetrexed; first compound 0.1 µM),relative viability (RO-3306 + Pemetrexed; first compound 0.3162 µM),relative viability (RO-3306 + Pemetrexed; first compound 1 µM),relative viability ([1]; first compound 0.8 µM),relative viability ([1]; first compound 2.53 µM),relative viability ([1]; first compound 8 µM),relative viability ([2]; first compound 0.8 µM),relative viability ([2]; first compound 2.53 µM),relative viability ([2]; first compound 8 µM),relative viability (RO-3306 + AZD7762; first compound 0.01 µM),relative viability (RO-3306 + AZD7762; first compound 0.03162 µM),relative viability (RO-3306 + AZD7762; first compound 0.1 µM),relative viability (RO-3306 + AZD7762; first compound 0.3162 µM),relative viability (RO-3306 + AZD7762; first compound 1 µM)
NCI-H2009,1.11,1.12,1.05,0.988,1.01,1.26,1.08,0.988,1.15,1.01,1.03,–,–,–,–,–
NCI-H1915,0.609,0.495,0.52,0.49,0.572,1.1,1.03,1.1,1.14,1.03,1.06,0.749,0.679,0.727,0.698,0.685
EMC-BAC-2,0.427,0.423,0.431,0.458,0.394,1.22,1.04,0.954,0.902,0.846,0.796,1.1,1.04,1.14,1.14,1
Calu-6,–,–,–,–,–,0.822,0.809,0.768,0.908,0.826,0.926,–,–,–,–,–
NCI-H2126,0.673,0.671,0.707,0.735,0.676,1.35,1.19,1.1,0.783,0.718,0.739,1.01,0.976,1.02,0.993,1.13
NCI-H596,0.519,0.403,0.467,0.522,0.452,0.876,0.711,0.887,1.17,0.838,0.968,1.17,1.01,1.03,1.1,0.917
SW 900,0.487,0.383,0.464,0.488,0.411,0.752,0.784,0.82,–,–,–,0.652,0.511,0.653,0.587,0.626
NCI-H1650,0.517,0.351,0.324,0.335,0.38,1.33,0.904,1.28,–,–,–,–,–,–,–,–
EKVX,0.416,0.306,0.405,0.444,0.454,0.751,0.479,0.82,0.897,0.946,0.931,0.727,0.538,0.677,0.692,0.603
NCI-H2342,0.71,0.778,0.816,0.817,0.759,1.15,1.03,0.951,–,–,–,0.437,0.448,0.524,0.536,0.464
ABC-1,–,–,–,–,–,1.31,1.19,1.08,0.85,0.581,0.485,0.906,0.812,0.823,0.963,0.813
COR-L 105,1.25,0.993,1.04,0.913,0.95,1.13,0.852,1.48,0.896,0.758,0.96,–,–,–,–,–
NCI-H1648,0.887,–,0.602,0.697,0.873,–,–,–,–,–,–,0.809,–,0.697,0.643,0.625
NCI-H522,1.16,0.947,0.868,1.16,1.03,–,–,–,–,–,–,0.914,0.734,0.914,0.89,0.843
NCI-H2228,0.356,0.36,0.347,0.355,0.265,0.65,0.657,0.839,0.615,0.727,0.391,–,–,–,–,–
EBC-1,–,–,–,–,–,0.0993,0.114,0.126,0.911,0.47,0.695,–,–,–,–,–
NCI-H1623,–,–,–,–,–,0.802,0.805,0.851,–,–,–,–,–,–,–,–
NCI-H1792,1.11,–,0.649,0.757,0.749,–,–,–,0.396,0.392,0.22,0.76,–,0.657,0.709,0.661
A549,–,–,–,–,–,0.962,0.944,0.752,0.697,0.585,0.603,–,–,–,–,–
NCI-H520,0.811,0.67,0.714,0.646,0.727,0.923,0.686,0.699,1.09,1.23,1.25,–,–,–,–,–
NCI-H1703,–,–,–,–,–,0.339,0.23,0.29,0.675,0.667,0.805,0.137,0.102,0.125,–,0.124
IA-LM,–,–,–,–,–,1.08,1,1.12,0.656,0.34,0.397,–,–,–,–,–
NCI-H2023,0.233,0.23,0.209,0.274,0.262,0.957,0.73,0.66,0.659,0.564,0.464,–,–,–,–,–
SK-MES-1,1.14,1,0.981,0.968,0.938,0.723,0.728,0.767,1.15,1.17,0.972,–,–,–,–,–
NCI-H661,0.966,0.954,0.929,0.926,0.963,1.03,0.961,0.844,0.688,0.515,0.561,–,–,–,–,–
NCI-H1563,0.847,0.788,0.818,0.852,0.692,0.922,0.827,0.893,1.2,1.17,1.06,–,–,–,–,–
NCI-H727,–,–,–,–,–,0.83,0.846,0.867,0.279,0.376,0.212,0.488,0.681,0.558,0.567,0.739
SK-LU-1,1.03,0.918,0.963,0.949,0.897,0.716,0.857,0.695,1.09,0.97,0.881,–,–,–,–,–
COR-L23,0.179,0.216,0.214,0.194,0.187,0.971,1.01,0.888,1.12,0.971,0.748,–,–,–,–,–
